The text below walks through data of US12581252B2, “Substituted pyrrolo[3,4-b]pyridines as PI3K-α inhibitors” (Relay Therapeutics, Inc., priority 2020, dated 2026).

Each structure is given as a SMILES string.

Chain of H1047R PIK3CA enzyme (P42336 whole entry H1047R): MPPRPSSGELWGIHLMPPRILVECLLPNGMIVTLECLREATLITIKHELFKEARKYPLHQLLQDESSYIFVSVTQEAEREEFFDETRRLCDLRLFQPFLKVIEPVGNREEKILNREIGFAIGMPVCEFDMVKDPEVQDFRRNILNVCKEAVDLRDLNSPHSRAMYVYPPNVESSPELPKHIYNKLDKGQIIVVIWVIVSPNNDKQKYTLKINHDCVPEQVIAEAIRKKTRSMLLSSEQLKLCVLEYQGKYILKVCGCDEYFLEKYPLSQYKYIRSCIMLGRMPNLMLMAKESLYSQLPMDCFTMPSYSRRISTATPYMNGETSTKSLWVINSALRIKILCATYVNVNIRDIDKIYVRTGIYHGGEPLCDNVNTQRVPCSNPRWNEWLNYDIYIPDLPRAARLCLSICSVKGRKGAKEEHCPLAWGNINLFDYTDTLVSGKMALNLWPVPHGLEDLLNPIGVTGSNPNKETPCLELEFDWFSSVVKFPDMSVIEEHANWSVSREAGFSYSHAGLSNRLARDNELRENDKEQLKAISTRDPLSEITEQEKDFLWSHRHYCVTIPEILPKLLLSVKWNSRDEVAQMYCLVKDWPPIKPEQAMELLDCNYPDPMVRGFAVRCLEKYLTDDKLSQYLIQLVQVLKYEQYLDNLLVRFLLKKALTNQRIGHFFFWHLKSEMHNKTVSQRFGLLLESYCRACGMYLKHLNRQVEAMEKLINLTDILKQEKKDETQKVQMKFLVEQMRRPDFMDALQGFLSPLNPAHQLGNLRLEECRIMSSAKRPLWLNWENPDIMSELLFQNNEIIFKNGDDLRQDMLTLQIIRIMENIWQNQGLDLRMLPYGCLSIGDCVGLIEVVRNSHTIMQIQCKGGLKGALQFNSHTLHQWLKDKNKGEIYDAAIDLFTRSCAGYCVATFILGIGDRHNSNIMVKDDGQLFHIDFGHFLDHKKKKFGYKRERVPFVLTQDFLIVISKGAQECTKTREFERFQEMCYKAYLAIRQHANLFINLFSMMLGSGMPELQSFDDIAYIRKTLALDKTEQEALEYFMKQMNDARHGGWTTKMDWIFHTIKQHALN
Chain of H1047R PIK3CA enzyme (P27986 whole entry partner): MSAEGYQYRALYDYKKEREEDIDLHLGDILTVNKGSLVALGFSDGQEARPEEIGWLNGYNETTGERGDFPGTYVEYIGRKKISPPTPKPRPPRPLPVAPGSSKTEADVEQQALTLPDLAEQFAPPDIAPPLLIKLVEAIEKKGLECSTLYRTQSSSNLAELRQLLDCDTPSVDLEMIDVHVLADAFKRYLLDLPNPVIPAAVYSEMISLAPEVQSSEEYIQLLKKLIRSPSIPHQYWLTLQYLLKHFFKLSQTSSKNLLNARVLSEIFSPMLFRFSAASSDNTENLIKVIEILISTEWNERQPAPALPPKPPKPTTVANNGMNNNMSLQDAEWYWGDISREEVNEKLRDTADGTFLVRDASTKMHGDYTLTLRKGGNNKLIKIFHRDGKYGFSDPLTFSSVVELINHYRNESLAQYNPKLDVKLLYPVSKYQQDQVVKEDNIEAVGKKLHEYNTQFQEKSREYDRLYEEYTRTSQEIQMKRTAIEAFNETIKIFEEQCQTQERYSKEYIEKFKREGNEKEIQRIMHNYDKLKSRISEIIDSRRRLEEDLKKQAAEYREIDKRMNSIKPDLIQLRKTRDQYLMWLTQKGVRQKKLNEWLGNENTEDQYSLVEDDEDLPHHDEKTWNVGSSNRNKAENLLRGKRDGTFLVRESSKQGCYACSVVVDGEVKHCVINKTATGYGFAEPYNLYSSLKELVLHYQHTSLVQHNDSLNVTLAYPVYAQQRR

This assay concerns the target H1047R PIK3CA enzyme (Homo sapiens, UniProt P42336, H1047R). In words: ADP-Glo Biochemical PIK3CA Kinase Assay. On the technique in general: ADP-Glo first removes unused ATP, then detects ADP through luciferase.
`COc1cccc(C2NC(=O)c3cccc(NC(=O)c4cc(F)cc(C(F)(F)F)c4)c32)c1` (centres unmarked) [Compound I-687]: the IC50 – broadly, the concentration that inhibits the measured activity by half – fell in the range of 10000 to 100000 nM.
`O=C(Nc1cc(Cl)cc2c1C(c1cc(F)ccc1Cl)NC2=O)c1cc(F)cc(C(F)(F)F)c1` (centres unmarked) [Compound I-688] displayed an IC50 of at most 100 nM.
With `O=C(Nc1cc(C2COC2)nc2c1C(c1cc(F)ccc1Cl)NC2=O)c1cc(F)cc(C(F)(F)F)c1` (centres unmarked) [Compound I-689] the figure was 100 to 500 nM.
As to `COCc1cc(NC(=O)c2cc(F)cc(C(F)(F)F)c2)c2c(c1)C(=O)N[C@@H]2c1cc(F)ccc1Cl` [Compound I-690], the IC50 is 100 to 500 nM.
Turning to `Cc1ccccc1C1NC(=O)c2cc(C(F)F)cc(NC(=O)c3cc(F)cc(C(F)(F)F)c3)c21` (centres unmarked) [Compound I-692], the IC50 was in the range of 100 to 500 nM.
`O=C(Nc1cc(Br)cc2c1C(c1cc(F)ccc1Cl)NC2=O)c1cc(Cl)cc(F)c1Cl` (centres unmarked) [Compound I-694] registered an IC50 of 1000 to 10000 nM.
In turn, `N#CC1(CNc2cc(NC(=O)c3cc(F)cc(C(F)(F)F)c3)c3c(c2)C(=O)NC3c2cc(F)ccc2Cl)CC1` (centres unmarked) [Compound I-695] returned an IC50 of at most 100 nM.
Under `CC(C)(O)Cc1cc(F)cc(C(=O)Nc2cc(CC(C)(C)O)cc3c2C(c2cc(F)ccc2Cl)NC3=O)c1` (centres unmarked) [Compound I-696] stands 10000 to 100000 nM.
Under `CCOC(=O)Cc1cc(F)cc(C(=O)Nc2cc(CC(=O)OCC)cc3c2C(c2cc(F)ccc2Cl)NC3=O)c1` (centres unmarked) [Compound I-697] stands 1000 to 10000 nM.
`O=C1NC(c2cc(F)ccc2Cl)c2c(NC(=O)N3CCOCC(F)(F)C3)cc(Br)cc21` (centres unmarked) [Compound I-698] yielded an IC50 of 10000 to 100000 nM.
In turn, `CC(C)n1cc(-c2cc(NC(=O)c3cc(F)cc(C(F)(F)F)c3)c3c(c2)C(=O)NC3c2cc(F)ccc2Cl)ccc1=O` (centres unmarked) [Compound I-699] showed an IC50 of at most 100 nM.
Compound `O=C(Nc1cc(-c2ccc(=O)n(C3CC3)c2)cc2c1C(c1cc(F)ccc1Cl)NC2=O)c1cc(F)cc(C(F)(F)F)c1` (centres unmarked) [Compound I-700] had an IC50 of at most 100 nM.
With `CCn1cc(-c2cc(NC(=O)c3cc(F)cc(C(F)(F)F)c3)c3c(c2)C(=O)N[C@@H]3c2cc(F)ccc2Cl)ccc1=O` [Compound I-703], the concentration for half-maximal inhibition (IC50) fell in the range of 10000 to 100000 nM.
In turn, `CCn1cc(-c2cc(NC(=O)c3cc(F)cc(C(F)(F)F)c3)c3c(c2)C(=O)N[C@H]3c2cc(F)ccc2Cl)ccc1=O` [Compound I-704] yielded an IC50 of at most 100 nM.
For the compound `COc1ccc(-c2cc(NC(=O)c3cc(F)cc(C(F)(F)F)c3)c3c(c2)C(=O)NC3c2cc(F)ccc2Cl)cn1` (centres unmarked) [Compound I-705], the IC50 is at most 100 nM.
On to `O=C(Nc1cc(CC2(O)CCC2)cc2c1C(c1cc(F)ccc1Cl)NC2=O)c1cc(F)cc(C(F)(F)F)c1` (centres unmarked) [Compound I-706], for which the half-inhibitory concentration (IC50) was at most 100 nM.
`O=C(Nc1cc(NCCO)cc2c1C(c1cc(F)ccc1Cl)NC2=O)c1cc(F)cc(C(F)(F)F)c1` (centres unmarked) [Compound I-707] gave an IC50 of at most 100 nM.
On to `CC(=O)COc1cc(NC(=O)c2cc(F)cc(C(F)(F)F)c2)c2c(c1)C(=O)NC2c1cc(F)ccc1Cl` (centres unmarked) [Compound I-708], for which the IC50 was at most 100 nM.
As for `CC(C)(O)COc1cc(NC(=O)c2cc(F)cc(C(F)(F)F)c2)c2c(c1)C(=O)NC2c1cc(F)ccc1Cl` (centres unmarked) [Compound I-709], the IC50 is at most 100 nM.
Turning to `CC1(Cc2cc(NC(=O)c3cc(F)cc(C(F)(F)F)c3)c3c(c2)C(=O)NC3c2cc(F)ccc2Cl)COC1` (centres unmarked) [Compound I-710], the IC50 is at most 100 nM.
`O=C1NC(c2cc(F)ccc2Cl)c2c(NC(=O)c3cc(F)cc4cc[nH]c34)cc(Br)cc21` (centres unmarked) [Compound I-711] came in with an IC50 of at most 100 nM.
On to `O=C(Nc1cc(-c2ncc[nH]2)cc2c1C(c1cc(F)ccc1Cl)NC2=O)c1cc(F)cc(C(F)(F)F)c1` (centres unmarked) [Compound I-712], for which the IC50 was at most 100 nM.
With `CC(C)(O)c1cc(NC(=O)N2CCc3ccccc32)c2c(c1)C(=O)N[C@H]2c1cc(F)ccc1Cl` [Compound I-713], the IC50 was at most 100 nM.
Under `CC(C)(O)c1cc(NC(=O)N2CCc3ccccc32)c2c(c1)C(=O)N[C@@H]2c1cc(F)ccc1Cl` [Compound I-714] stands 10000 to 100000 nM; under `Cc1ccccc1C1NC(=O)c2cccc(NC(=O)c3cc(F)cc(C(C)C)c3)c21` (centres unmarked) [Compound I-715], 1000 to 10000 nM.
Take `O=C1NC(c2cc(F)ccc2Cl)c2c(NC(=O)N3CCNc4ccccc43)cc(Br)cc21` (centres unmarked) [Compound I-716]: the IC50 lay within 1000 to 10000 nM.
`O=C(Nc1cccc2c1C(c1cccc(B(O)O)c1)NC2=O)c1cc(F)cc(C(F)(F)F)c1` (centres unmarked) [Compound I-717]: the IC50 lay in the range of 10000 to 100000 nM.
In turn, `O=C(Nc1cccc2c1C(c1cccc(C3CC3)c1)NC2=O)c1cc(F)cc(C(F)(F)F)c1` (centres unmarked) [Compound I-718] had an IC50 of 10000 to 100000 nM.
Under `Nc1ccc(C(=O)Nc2cc(Br)cc3c2C(c2cc(F)ccc2Cl)NC3=O)cc1C(F)(F)F` (centres unmarked) [Compound I-719] stands 1000 to 10000 nM; under `O=C1NC(c2cc(F)ccc2Cl)c2c(NC(=O)N3CCCC4CCCC43)cc(Br)cc21` (centres unmarked) [Compound I-722], 100 to 500 nM.
In turn, `N#CC1CN(c2cc(NC(=O)c3cc(F)cc(C(F)(F)F)c3)c3c(c2)C(=O)NC3c2cc(F)ccc2Cl)C1` (centres unmarked) [Compound I-723] had an IC50 of at most 100 nM.
On to `O=C(Nc1cccc2c1C(c1cc(F)ccc1Cl)NC2=O)c1cc(C(F)(F)F)cc(Cl)n1` (centres unmarked) [Compound I-724], for which the IC50 was in the range of 1000 to 10000 nM.
Turning to `O=C(Nc1cccc2c1C(c1cc(F)ccc1Cl)NC2=O)c1cc(Cl)cc(C(F)(F)F)c1` (centres unmarked) [Compound I-725], the IC50 lay within 500 to 1000 nM.
With `Nc1cc(C(F)(F)F)cc(C(=O)Nc2cccc3c2C(c2cc(F)ccc2Cl)NC3=O)n1` (centres unmarked) [Compound I-726], the concentration for half-maximal inhibition (IC50) is 1000 to 10000 nM.
With `Cn1c2c(c(NC(=O)c3cc(F)cc(C(F)(F)F)c3)cc1=O)C(c1cc(F)ccc1Cl)NC2=O` (centres unmarked) [Compound I-727], the IC50 was in the range of 10000 to 100000 nM.
Consider `COC1CN(c2cc(NC(=O)c3cc(F)cc(C(F)(F)F)c3)c3c(c2)C(=O)NC3c2cc(F)ccc2Cl)C1` (centres unmarked) [Compound I-728], for which the IC50 lay in the range of 100 to 500 nM.
Consider `O=C(Nc1cc(N2CC3(COC3)C2)cc2c1C(c1cc(F)ccc1Cl)NC2=O)c1cc(F)cc(C(F)(F)F)c1` (centres unmarked) [Compound I-729], for which the IC50 was at most 100 nM.
Compound `CC(C)(O)CNc1cc(NC(=O)c2cc(F)cc(C(F)(F)F)c2)c2c(c1)C(=O)NC2c1cc(F)ccc1Cl` (centres unmarked) [Compound I-730] came in with an IC50 of at most 100 nM.
With `O=C1NC(c2cc(F)ccc2Cl)c2c(NC(=O)c3coc4c(F)cc(F)cc34)cc(Br)cc21` (centres unmarked) [Compound I-731] the figure was at most 100 nM; with `Cc1ncc(-c2cc(NC(=O)c3cc(F)cc(C(F)(F)F)c3)c3c(c2)C(=O)NC3c2cc(F)ccc2Cl)cn1` (centres unmarked) [Compound I-732], at most 100 nM; with `O=C1N[C@H](c2cc(F)ccc2Cl)c2c(NC(=O)c3csc4ccccc34)cc(Br)cc21` [Compound I-733], 1000 to 10000 nM.
Under `O=C1N[C@@H](c2cc(F)ccc2Cl)c2c(NC(=O)c3csc4ccccc34)cc(Br)cc21` [Compound I-734] stands at most 100 nM.
`CS(=O)(=O)CCCOc1cc(NC(=O)c2cc(F)cc(C(F)(F)F)c2)c2c(c1)C(=O)NC2c1cc(F)ccc1Cl` (centres unmarked) [Compound I-735]: the IC50 is 100 to 500 nM.
`O=C(Nc1cc(-c2ccc3nccn3c2)cc2c1C(c1cc(F)ccc1Cl)NC2=O)c1cc(F)cc(C(F)(F)F)c1` (centres unmarked) [Compound I-736]: the IC50 is at most 100 nM.
`O=C(Nc1cc(-c2ccc3ncccc3c2)cc2c1C(c1cc(F)ccc1Cl)NC2=O)c1cc(F)cc(C(F)(F)F)c1` (centres unmarked) [Compound I-737] came in with an IC50 of at most 100 nM.
`O=C(Nc1cc(-c2ccc3c(c2)OC(F)(F)O3)cc2c1C(c1cc(F)ccc1Cl)NC2=O)c1cc(F)cc(C(F)(F)F)c1` (centres unmarked) [Compound I-738] gave an IC50 of 100 to 500 nM.
The compound `CC(C)(O)COc1cc(NC(=O)c2cc(F)cc(C(F)(F)F)c2)c2c(c1)C(=O)N[C@@H]2c1cc(F)ccc1Cl` [Compound I-739] displayed an IC50 of 1000 to 10000 nM.
`CC(C)(O)COc1cc(NC(=O)c2cc(F)cc(C(F)(F)F)c2)c2c(c1)C(=O)N[C@H]2c1cc(F)ccc1Cl` [Compound I-740] had an IC50 of at most 100 nM.
For `O=C(Nc1cc(-c2ccc3c(c2)OCO3)cc2c1C(c1cc(F)ccc1Cl)NC2=O)c1cc(F)cc(C(F)(F)F)c1` (centres unmarked) [Compound I-741], the IC50 is at most 100 nM.
Regarding `CC(C)n1cc(-c2cc(NC(=O)c3cc(F)cc(C(F)(F)F)c3)c3c(c2)C(=O)N[C@@H]3c2cc(F)ccc2Cl)ccc1=O` [Compound I-742], the IC50 was in the range of 1000 to 10000 nM.
Under `CC(C)n1cc(-c2cc(NC(=O)c3cc(F)cc(C(F)(F)F)c3)c3c(c2)C(=O)N[C@H]3c2cc(F)ccc2Cl)ccc1=O` [Compound I-743] stands at most 100 nM; under `O=C(Nc1cc(-c2ccc(=O)n(C3CC3)c2)cc2c1[C@@H](c1cc(F)ccc1Cl)NC2=O)c1cc(F)cc(C(F)(F)F)c1` [Compound I-744], 1000 to 10000 nM; under `O=C(Nc1cc(-c2ccc(=O)n(C3CC3)c2)cc2c1[C@H](c1cc(F)ccc1Cl)NC2=O)c1cc(F)cc(C(F)(F)F)c1` [Compound I-745], at most 100 nM.
`O=C(Nc1cc(-c2ccc(=O)n(C3CC3)c2)nc2c1[C@@H](c1cc(F)ccc1Cl)NC2=O)c1cc(F)cc(C(F)(F)F)c1` [Compound I-746] returned an IC50 of 1000 to 10000 nM.
With `CC1(COc2cc(NC(=O)c3cc(F)cc(C(F)(F)F)c3)c3c(c2)C(=O)NC3c2cc(F)ccc2Cl)COC1` (centres unmarked) [Compound I-748], the IC50 was at most 100 nM.
With `Cc1c(F)cccc1[C@H]1NC(=O)c2cc(Br)cc(NC(=O)c3cc(F)cc(C(F)(F)F)c3)c21` [Compound I-749] the figure was 1000 to 10000 nM.
Under `Cc1c(F)cccc1[C@@H]1NC(=O)c2cc(Br)cc(NC(=O)c3cc(F)cc(C(F)(F)F)c3)c21` [Compound I-750] stands 100 to 500 nM; under `Cc1c(F)cccc1C1NC(=O)c2cc(Br)cc(NC(=O)c3cc(F)cc(C(F)(F)F)c3)c21` (centres unmarked) [Compound I-751], 100 to 500 nM.
`O=C(Nc1cc(Br)cc2c(=O)[nH]n(-c3cc(F)ccc3Cl)c12)c1cc(F)cc(C(F)(F)F)c1` [Compound I-752] returned an IC50 of 1000 to 10000 nM.
In turn, `O=C1NC(c2cc(F)ccc2Cl)c2c(NC(=S)c3cc(F)cc(C(F)(F)F)c3)cccc21` (centres unmarked) [Compound I-753] gave an IC50 of 500 to 1000 nM.
In the case of `O=C(Nc1cc(Br)cc2c1[C@@H](c1ccc(F)cc1Cl)NC2=O)c1cc(F)cc(C(F)(F)F)c1` [Compound I-754], the IC50 was 1000 to 10000 nM.
In the case of `O=C(Nc1cc(Br)cc2c1[C@H](c1ccc(F)cc1Cl)NC2=O)c1cc(F)cc(C(F)(F)F)c1` [Compound I-755], the IC50 was 100 to 500 nM.
